Test results from publication PMC8664216 (PLoS Neglected Tropical Diseases, 2021).
pEC50: −log10 of the molar value.

How the values were obtained:
p62 = assay: Western blot of p62 in mock- or CHIKV-infected Huh7 cells; assay type: cell-based, human; conditions: 10 μM tomatidine, 9 hpi
CD98 = assay: Western blot of CD98 in mock- or CHIKV-infected Huh7 cells; assay type: cell-based, human; conditions: 10 μM tomatidine, 9 hpi
TMX2 = assay: Western blot of TMX2 in mock- or CHIKV-infected Huh7 cells; assay type: cell-based, human; conditions: 10 μM tomatidine, 9 hpi
CHIKV-LR [1] = assay: Infectious particle production (plaque assay) in siRNA knockdown Huh7 cells; assay type: cell-based, Chikungunya virus; conditions: CHIKV MOI 10, 10 μM tomatidine, 9 hpi
[2] = test system: CHIKV in vitro transcribed RNA (CHIK-LR); assay: Virus cell entry-bypass assay: electroporation of in vitro transcribed CHIKV RNA, plaque assay; assay type: cell-based, Chikungunya virus; conditions: Huh7 cells electroporated with CHIKV RNA, 10 μM tomatidine, 16 h post-transfection
[3] = test system: CHIKV-LR trans-replicase system; assay: CHIKV trans-replicase system, tomato marker by flow cytometry; assay type: cell-based, Chikungunya virus; conditions: for Percentage of fluorescent tomato marker expressing cells / Reduction of marker expressing cells compared to EtOH control: Huh7 cells; for Percentage of fluorescent tomato marker expressing cells: read at 24 h, EtOH control 8.18±0.45%
CHIKV-LR [4] = assay: Time-trace and time-chase: intracellular CHIKV RNA copies by Q-RT-PCR; assay type: cell-based, Chikungunya virus; conditions: Huh7 cells; for Intracellular viral RNA load: MOI 10, 10 μM tomatidine at time of infection; for Reduction of intracellular RNA load compared to EtOH control: MOI 10, 10 μM tomatidine
CHIKV-LR [5] = assay: Western blot of CHIKV nsP2, E1 and capsid proteins; assay type: cell-based, Chikungunya virus; conditions: 9 hpi
DENV-2 = conditions: DENV-2, in vitro; cited from earlier work
CHIKV-LR [6] = conditions: in vitro; cited from earlier work
Huh7 cells [7] = conditions: cited from earlier work
Huh7 cells [8] = assay: ATPLite cytotoxicity assay; conditions: 7 μM ivermectin, 24 h
[9] = CHIKV-infected (MOI 10) Huh7 cells
[10] = Huh7, MOI 10, 10 μM tomatidine added at 4 hpi
[11] = Huh7, MOI 10, 10 μM tomatidine added at 6 hpi
[12] = Huh7, MOI 10, 10 μM tomatidine added simultaneous to infection

Molecule: C[C@H]1CC[C@]2(NC1)O[C@H]1C[C@H]3[C@@H]4CC[C@H]5C[C@@H](O)CC[C@]5(C)[C@H]4CC[C@]3(C)[C@H]1[C@@H]2C [tomatidine, Tomatidine]
- Increase of p62 expression compared to solvent control (p62; [9]): 1.8 fold
- Increase of p62 expression compared to solvent control (p62; mock-infected Huh7 cells): 1.7 fold
- Increase of CD98 expression compared to solvent control (CD98; [9]): 1.4 fold
- Increase of CD98 expression compared to solvent control (CD98; mock-infected Huh7 cells): 1.6 fold
- Change in protein expression of TMX2 (TMX2): did not induce any significant change
- Inhibition of infectious particle production compared to EtOH control (CHIKV-LR [1]; Huh7 cells with CD98 siRNA knock-down): 91.68%
- Inhibition of infectious particle production compared to EtOH control (CHIKV-LR [1]; Huh7 cells with p62 knock-down (siRNA #1)): 86.37%
- Inhibition of infectious particle production compared to EtOH control (CHIKV-LR [1]; Huh7 cells with p62 knock-down (siRNA #4)): 90.82%
- Reduction of virus titer [2]: 2.6 log
- Infectious virus titer ([2]; EtOH control 5.0±0.1): 2.4±0.3 Log10 PFU/mL
- Percentage of fluorescent tomato marker expressing cells ([3]; 10 μM tomatidine added 1 h post-transfection): 4.4±0.69%
- Reduction of marker expressing cells compared to EtOH control ([3]; 10 μM tomatidine, 24 h post-transfection): 46%
- Intracellular viral RNA load (CHIKV-LR [4]; 1 and 2 hpi (all experimental conditions)): ~ 7 Log10 copies
- Intracellular viral RNA load (CHIKV-LR [4]; 4 hpi, EtOH 8.0±0.2): 7.8±0.1 Log10 copies
- Intracellular viral RNA load (CHIKV-LR [4]; 6 hpi, EtOH 9.7±0.1): 9.2±0.1 Log10 copies
- Intracellular viral RNA load (CHIKV-LR [4]; 8 hpi, EtOH 10.3±0.0): 9.9±0.1 Log10 copies
- Reduction of intracellular RNA load compared to EtOH control (CHIKV-LR [4]; 6 hpi): 74%
- Reduction of intracellular RNA load compared to EtOH control (CHIKV-LR [4]; 8 hpi): 62%
- Intracellular viral RNA copy number vs absence of tomatidine (time-chase) (CHIKV-LR [4]; MOI 10, tomatidine added at 6 hpi, RNA at 8 and 10 hpi, without tomatidine 10.3±0.0 and 10.6±0.0 Log10): Comparable results
- C (capsid) expression compared to EtOH control (CHIKV-LR [5]; [10]): 50%
- E1 expression compared to EtOH control (CHIKV-LR [5]; [10]): 30%
- nsP2 expression compared to EtOH control (CHIKV-LR [5]; [10]): 50%
- C (capsid) expression compared to EtOH control (CHIKV-LR [5]; [11]): 60%
- E1 expression compared to EtOH control (CHIKV-LR [5]; [11]): 40%
- nsP2 expression compared to EtOH control (CHIKV-LR [5]; [11]): 60%
- C (capsid) expression compared to EtOH control (CHIKV-LR [5]; [12]): 46%
- E1 expression compared to EtOH control (CHIKV-LR [5]; [12]): 18%
- nsP2 expression compared to EtOH control (CHIKV-LR [5]; [12]): 50%
- pEC50 (DENV-2): 6.09
- pEC50 (CHIKV-LR [6]): 5.89
- Highest non-toxic yet antiviral dose (Huh7 cells [7]): 10 µM

Molecule: ivermectin
- Percentage of fluorescent tomato marker expressing cells ([3]; 7 μM ivermectin added 1 h post-transfection): 2.19±0.5%
- Reduction of marker expressing cells compared to EtOH control ([3]; 7 μM ivermectin, 24 h post-transfection): 73%
- MFI of tomato marker relative to EtOH control ([3]; marker-positive Huh7 cells, 7 μM ivermectin, 24 h post-transfection): 0.4±0.06
- Cytotoxicity of the selected concentration (Huh7 cells [8]): non-toxic
